System: healthy volunteers
Assay: First in human study Part 2: MAD, incidence of adverse events and MTD
Format: in vivo
Conditions: for AEs leading to discontinuation of: nE / AEs leading to discontinuation of: nS (%) / AEs of Mild severity: nE / AEs of Mild severity: nS (%) / AEs of Moderate: nE / AEs of Moderate: nS (%) / AEs, Subjects with AEs: nE (AE events) / AEs, Subjects with AEs: nS (%) (subjects with at least one AE) / Serious AEs: nE / Serious AEs: nS (%) / Study drug-related AEs: nE / Study drug-related AEs: nS (%) / Study-drug related AEs (last line of Table 2): nE / Study-drug related AEs (last line of Table 2): nS (%): MAD, N = 6
Experimental: Part 2 tested multiple ascending doses (MAD) of compound I, administering (i) 1 drop of 0.15%, 1.5%, 2.5%, 4 times daily (every 6 hours) for 7 days or (ii) 1 drop of 2.5%, 8 times daily (every 3 hours) for 7 days (supra-therapeutic dose) as eye drops.
Safety assessments: Safety assessments consisted of collecting all adverse events (AEs), serious adverse events (SAEs), including systemic and ocular adverse events, along with their severity and relationship to study drug. Systemic safety assessments included regular monitoring of hematology, blood chemistry and urinalysis performed at study center and regular assessments of physical examination, vital signs (systolic and diastolic blood pressure, pulse rate, and body temperature), ECG, pregnancy and assessments of fertility and hand immersion test at 49° C. during MAD part. Ocular safety assessments included early treatment diabetic retinopathy study (ETDRS) visual acuity, intraocular pressure, slit-lamp biomicroscopy, corneal staining and dilated fundus exam.
Inclusion Criteria: • Written informed consent was obtained before any assessment was performed. • Healthy male and female subjects aged 18 to 50 years (inclusive), and in good health as determined by past medical history, physical examination, vital signs, ECG, and laboratory tests at Screening. • At Screening, and Baseline, vital signs (systolic and diastolic blood pressure (BP) and pulse rate) were assessed in the sitting position after the subject had rested for at least 3 minutes and again after 3 minutes in the standing position. […] BMI=Body weight (kg)/[Height (m)]^2 • Subjects who were able to communicate well with the Investigator, to understand and comply with the requirements of the study. • For Part 3, subjects Baseline levels of eye sensitivity were to be in the range of 50 to 60 mm (inclusive) as measured by the Cochet-Bonnet esthesiometer.
History of any chronic eye disease other than refractive error, incipient cataract, strabismic amblyopia, or anisometropic amblyopia. Subjects with a history of acute eye disease (such as infection, corneal abrasion or allergy) within the past 6 months from Screening were eligible if the disease was not active. • Any currently active ocular condition that required use of topical eye drops. • Subjects using continuous positive airway pressure or other sleep apnea devices.

CC(C)c1nc2cc(O)ccc2c(=O)n1-c1ccc(C#N)cc1 [Compound I, 4-(7-hydroxy-2-isopropyl-4-oxo-4H-quinazolin-3-yl)-benzonitrile]
Dose limiting adverse events (2.5%, 8 times daily for 7 days): No dose limiting adverse events were identified | AEs leading to discontinuation of: nE (0.15% 4 times daily for 7 days): 0 | AEs leading to discontinuation of: nS (%) (0.15% 4 times daily for 7 days): 0 (0.0) nS (%) | AEs of Mild severity: nE (0.15% 4 times daily for 7 days): 6 | AEs of Mild severity: nS (%) (0.15% 4 times daily for 7 days): 3 (50.0) nS (%) | AEs of Moderate: nE (0.15% 4 times daily for 7 days): 0 | AEs of Moderate: nS (%) (0.15% 4 times daily for 7 days): 0 (0.0) nS (%) | AEs, Subjects with AEs: nE (AE events) (0.15% 4 times daily for 7 days): 6 | AEs, Subjects with AEs: nS (%) (subjects with at least one AE) (0.15% 4 times daily for 7 days): 3 (50.0) nS (%) | Serious AEs: nE (0.15% 4 times daily for 7 days): 0, 0 | Serious AEs: nS (%) (0.15% 4 times daily for 7 days): 0, 0 nS (%) | Study drug-related AEs: nE (0.15% 4 times daily for 7 days): 5 | Study drug-related AEs: nS (%) (0.15% 4 times daily for 7 days): 2 (33.3) nS (%) | Study-drug related AEs (last line of Table 2): nE (0.15% 4 times daily for 7 days): 0 | Study-drug related AEs (last line of Table 2): nS (%) (0.15% 4 times daily for 7 days): 0 (0.0) nS (%) | AEs leading to discontinuation of: nE (1.5% 4 times daily for 7 days): 0 | AEs leading to discontinuation of: nS (%) (1.5% 4 times daily for 7 days): 0 (0.0) nS (%) | AEs of Mild severity: nE (1.5% 4 times daily for 7 days): 11 | AEs of Mild severity: nS (%) (1.5% 4 times daily for 7 days): 5 (83.3) nS (%) | AEs of Moderate: nE (1.5% 4 times daily for 7 days): 1 | AEs of Moderate: nS (%) (1.5% 4 times daily for 7 days): 1 (16.7) nS (%) | AEs, Subjects with AEs: nE (AE events) (1.5% 4 times daily for 7 days): 12 | AEs, Subjects with AEs: nS (%) (subjects with at least one AE) (1.5% 4 times daily for 7 days): 5 (83.3) nS (%) | Serious AEs: nE (1.5% 4 times daily for 7 days): 0 | Serious AEs: nS (%) (1.5% 4 times daily for 7 days): 0 (0.0) nS (%) | Study drug-related AEs: nE (1.5% 4 times daily for 7 days): 9 | Study drug-related AEs: nS (%) (1.5% 4 times daily for 7 days): 3 (50.0) nS (%) | Study-drug related AEs (last line of Table 2): nE (1.5% 4 times daily for 7 days): 0 | Study-drug related AEs (last line of Table 2): nS (%) (1.5% 4 times daily for 7 days): 0 (0.0) nS (%) | AEs leading to discontinuation of: nE (2.5% 4 times daily for 7 days): 1, 1 | AEs leading to discontinuation of: nS (%) (2.5% 4 times daily for 7 days): 1, 1 nS (%) | AEs of Mild severity: nE (2.5% 4 times daily for 7 days): 3 | AEs of Mild severity: nS (%) (2.5% 4 times daily for 7 days): 2 (33.3) nS (%) | AEs of Moderate: nE (2.5% 4 times daily for 7 days): 1 | AEs of Moderate: nS (%) (2.5% 4 times daily for 7 days): 1 (16.7) nS (%) | AEs, Subjects with AEs: nE (AE events) (2.5% 4 times daily for 7 days): 4 | AEs, Subjects with AEs: nS (%) (subjects with at least one AE) (2.5% 4 times daily for 7 days): 2 (33.3) nS (%) | Serious AEs: nE (2.5% 4 times daily for 7 days): 0 | Serious AEs: nS (%) (2.5% 4 times daily for 7 days): 0 (0.0) nS (%) | Study drug-related AEs: nE (2.5% 4 times daily for 7 days): 4 | Study drug-related AEs: nS (%) (2.5% 4 times daily for 7 days): 2 (33.3) nS (%) | Study-drug related AEs (last line of Table 2): nE (2.5% 4 times daily for 7 days): 1 | Study-drug related AEs (last line of Table 2): nS (%) (2.5% 4 times daily for 7 days): 1 (16.7) nS (%) | AEs leading to discontinuation of: nE (2.5% 8 times daily for 7 days): 0 | AEs leading to discontinuation of: nS (%) (2.5% 8 times daily for 7 days): 0 (0.0) nS (%) | AEs of Mild severity: nE (2.5% 8 times daily for 7 days): 3 | AEs of Mild severity: nS (%) (2.5% 8 times daily for 7 days): 2 (33.3) nS (%) | AEs of Moderate: nE (2.5% 8 times daily for 7 days): 0 | AEs of Moderate: nS (%) (2.5% 8 times daily for 7 days): 0 (0.0) nS (%)

Source: patent US11234982B2, “Methods for treating ocular surface pain” (NOVARTIS AG, priority 2019, dated 2022)
